Assay results reported in US11149037B2, “Pyrazole MAGL inhibitors” (H. Lundbeck A/S, priority 2017, dated 2021).

Legend:
[1] = target: FAAH (Homo sapiens (Human), UniProt O00519); experiment: In vitro competitive activity-based protein profiling, human proteomes (prefrontal cortex or PC3 cell membrane fractions); type: biochemical; details: human proteome; for inhibition at 1 µM: read-out: FAAH % inh. 1 μM (human)
Method in brief: (§1)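 Activity of MAGL and FAAH was quantified from fluorescent gel band intensities. Beforehand, inhibitors at several concentrations competed against subsequent probe labelling (FP-Rh, JW912 or HT-01) in species-matched proteomes, each step 30 min at 37° C.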

[2] = target: MAGL (Homo sapiens (Human), UniProt Q99685); experiment: as above; type: biochemical; details: human proteome; for inhibition at 1 µM: read-out: MAGL % inh. 1 μM (human)
Chain of MAGL (Homo sapiens (Human), UniProt Q99685) (Q99685 whole entry): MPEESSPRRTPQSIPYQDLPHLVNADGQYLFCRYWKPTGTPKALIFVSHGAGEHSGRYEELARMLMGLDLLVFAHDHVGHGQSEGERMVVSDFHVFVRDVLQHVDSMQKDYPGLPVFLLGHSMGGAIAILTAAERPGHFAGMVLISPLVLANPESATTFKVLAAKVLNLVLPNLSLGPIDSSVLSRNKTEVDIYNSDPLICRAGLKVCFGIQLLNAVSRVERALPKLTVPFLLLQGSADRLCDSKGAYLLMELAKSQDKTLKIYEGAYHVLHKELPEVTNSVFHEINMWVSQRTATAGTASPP
Method in brief: as §1

[3] = target: T1, MAGL (Mus musculus (Mouse), UniProt O35678); experiment: Mouse brain proteomes from inhibitor treated mice (oral gavage, sacrificed 4 h after administration); type: in vivo; details: 5 mg/kg oral gavage
T1 sequence (O35678 whole entry): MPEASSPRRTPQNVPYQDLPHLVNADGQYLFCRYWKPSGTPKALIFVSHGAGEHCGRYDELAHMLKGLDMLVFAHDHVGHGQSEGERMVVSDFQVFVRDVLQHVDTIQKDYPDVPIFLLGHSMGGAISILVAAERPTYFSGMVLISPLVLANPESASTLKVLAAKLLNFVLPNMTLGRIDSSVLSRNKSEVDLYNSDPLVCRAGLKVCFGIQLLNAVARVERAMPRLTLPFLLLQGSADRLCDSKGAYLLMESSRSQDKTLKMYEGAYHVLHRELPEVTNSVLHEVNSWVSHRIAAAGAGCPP
Experimental: (§2) Preparation of Mouse Brain Proteomes from Inhibitor Treated Mice.
(§3) Inhibitors were administered to wild-type C57B1/6J by oral gavage in a vehicle of polyethylene glycol. Each animal was sacrificed 4 h following administration and brain proteomes were prepared and analyzed according to previously established methods (See Niphakis, M. J., et al. (2011) ACS Chem. Neurosci. and Long, J. Z., et al. Nat. Chem. Biol. 5:37-44).

[4] = target: T2, FAAH (Mus musculus (Mouse), UniProt O08914); experiment: as above; type: in vivo; details: 5 mg/kg oral gavage
T2 sequence (O08914 whole entry): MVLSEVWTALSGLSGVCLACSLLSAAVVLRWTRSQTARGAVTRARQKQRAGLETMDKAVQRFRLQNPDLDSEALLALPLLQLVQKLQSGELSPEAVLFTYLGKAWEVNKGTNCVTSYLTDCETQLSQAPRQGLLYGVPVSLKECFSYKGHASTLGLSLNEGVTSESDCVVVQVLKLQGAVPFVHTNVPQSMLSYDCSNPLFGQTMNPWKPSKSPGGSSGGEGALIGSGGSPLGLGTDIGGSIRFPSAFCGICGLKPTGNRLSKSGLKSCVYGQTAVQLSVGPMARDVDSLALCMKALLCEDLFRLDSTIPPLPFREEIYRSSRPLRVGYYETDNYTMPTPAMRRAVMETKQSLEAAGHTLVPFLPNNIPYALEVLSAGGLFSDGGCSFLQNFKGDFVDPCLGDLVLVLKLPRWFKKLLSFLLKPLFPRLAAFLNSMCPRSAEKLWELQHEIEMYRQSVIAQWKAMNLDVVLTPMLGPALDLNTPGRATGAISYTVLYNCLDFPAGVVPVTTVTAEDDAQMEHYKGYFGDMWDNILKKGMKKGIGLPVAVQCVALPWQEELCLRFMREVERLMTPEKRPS
Experimental: as §2, §3

[5] = target: T1, MAGL; experiment: In vitro competitive activity-based protein profiling, mouse proteomes (brain membrane fraction or cell lysates); type: biochemical; details: mouse proteome, read-out: MAGL % inh. 1 μM (mouse)
Method in brief: as §1

[6] = target: T2, FAAH; experiment: as above; type: biochemical; details: mouse proteome, read-out: FAAH % inh. 1 μM (mouse)
Method in brief: as §1

Chain of FAAH (Homo sapiens (Human), UniProt O00519) (O00519 whole entry): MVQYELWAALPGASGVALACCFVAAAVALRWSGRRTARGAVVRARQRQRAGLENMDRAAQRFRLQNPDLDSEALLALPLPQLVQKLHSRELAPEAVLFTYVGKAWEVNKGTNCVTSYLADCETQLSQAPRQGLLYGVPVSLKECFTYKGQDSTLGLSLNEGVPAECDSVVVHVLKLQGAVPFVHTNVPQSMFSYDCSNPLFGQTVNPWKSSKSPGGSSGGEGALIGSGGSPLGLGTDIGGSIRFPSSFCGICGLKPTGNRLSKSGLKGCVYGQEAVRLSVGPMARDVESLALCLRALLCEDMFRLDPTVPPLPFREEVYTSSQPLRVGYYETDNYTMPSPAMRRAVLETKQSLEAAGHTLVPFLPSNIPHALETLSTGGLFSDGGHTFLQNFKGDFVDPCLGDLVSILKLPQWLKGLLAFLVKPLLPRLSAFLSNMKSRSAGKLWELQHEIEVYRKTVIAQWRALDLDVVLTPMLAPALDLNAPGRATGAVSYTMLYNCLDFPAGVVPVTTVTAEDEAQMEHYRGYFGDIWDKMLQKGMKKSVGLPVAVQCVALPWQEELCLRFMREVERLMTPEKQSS

IC50 [1] [µM]	IC50 [2] [µM]	inhibition at 1 µM [5] [%]	inhibition at 1 µM [6] [%]	inhibition at 1 µM [1] [%]	inhibition at 1 µM [2] [%]	Structure (SMILES)	MAGL % inh. 5 mg/kg (mouse) [3]	FAAH % inh. 5 mg/kg (mouse) [4]
1 to 10	< 0.1	> 75	0 to 25	0 to 25	> 75	CS(=O)(=O)Nc1ccn(C(=O)N2CCC3(CCN(Cc4ccc(Cl)cc4N4CCCC4)C3)CC2)n1 [Example 63, N-(1-(2-(4-Chloro-2-(pyrrolidin-1-yl)benzyl)-2,8-diazaspiro[4.5]decane-8-carbonyl)-1H-pyrazol-3-yl)methanesulfonamide]	C (% inhibition is greater than or equal to 25% and less than 50%)	D (% inhibition is greater than or equal to 0% and less than 25%)
		> 75	0 to 25	0 to 25	> 75	CS(=O)(=O)Nc1ccn(C(=O)N2CCN(Cc3ccc(Cl)c(N4CCC5(CCOCC5)C4)c3)CC2)n1 [Example 159, N-(1-(4-(4-Chloro-3-(8-oxa-2-azaspiro[4.5]decan-2-yl)benzyl)piperazine-1-carbonyl)-1H-pyrazol-3-yl)methanesulfonamide]	D (% inhibition is greater than or equal to 0% and less than 25%)	D (% inhibition is greater than or equal to 0% and less than 25%)
		> 75			> 75	C[C@H]1CN(C(=O)n2ccc(NS(C)(=O)=O)n2)CCN1Cc1ccc(C(F)(F)F)c(N2CCC(C(F)(F)F)CC2)c1 [Example 185, (S)-N-(1-(3-Methyl-4-(4-(trifluoromethyl)-3-(4-(trifluoromethyl)piperidin-1-yl)benzyl)piperazine-1-carbonyl)-1H-pyrazol-3-yl)methanesulfonamide]	A (% inhibition is greater than or equal to 75%)	
		> 75			> 75	C[C@H]1CN(C(=O)n2ccc(NS(C)(=O)=O)n2)CCN1Cc1ccc(Cl)c(N2CCC(C(F)(F)F)CC2)c1 [Example 188, (S)-N-(1-(4-(4-Chloro-3-(4-(trifluoromethyl)piperidin-1-yl)benzyl)-3-methylpiperazine-1-carbonyl)-1H-pyrazol-3-yl)methanesulfonamide]	A (% inhibition is greater than or equal to 75%)	
		> 75			> 75	CN(Cc1ccc(Cl)cc1N1CC2COCC2C1)C1(C)CCN(C(=O)n2ccc(NS(C)(=O)=O)n2)CC1 (stereo not shown) [Example 197, N-(1-(4-((4-Chloro-2-(tetrahydro-1H-furo[3,4-c]pyrrol-5(3H)-yl)benzyl)(methyl)amino)-4-methylpiperidine-1-carbonyl)-1H-pyrazol-3-yl)methanesulfonamide]	D (% inhibition is greater than or equal to 0% and less than 25%)	

Continued, compound first:

Structure (SMILES)	IC50 [1] [µM]	IC50 [2] [µM]	inhibition at 1 µM [5] [%]	inhibition at 1 µM [6] [%]	inhibition at 1 µM [1] [%]	inhibition at 1 µM [2] [%]	MAGL % inh. 5 mg/kg (mouse) [3]	FAAH % inh. 5 mg/kg (mouse) [4]
CC(=O)Nc1ccn(C(=O)N2CCC3(CCCN3Cc3cc4cc(Cl)ccc4s3)CC2)n1 [Example 39, N-(1-(1-((5-Chlorobenzo[b]thiophen-2-yl)methyl)-1,8-diazaspiro[4.5]decane-8-carbonyl)-1H-pyrazol-3-yl)acetamide]	1 to 10	< 0.1	> 75	50 to 75			A (% inhibition is greater than or equal to 75%)	D (% inhibition is greater than or equal to 0% and less than 25%)
CS(=O)(=O)Nc1ccn(C(=O)N2CCN(Cc3ccc(Cl)c(N4C[C@H]5C[C@@H]4CO5)c3)CC2)n1 [Example 157, N-(1-(4-(3-((1R,4R)-2-Oxa-5-azabicyclo[2.2.1]heptan-5-yl)-4-chlorobenzyl)piperazine-1-carbonyl)-1H-pyrazol-3-yl)methanesulfonamide]			> 75	0 to 25	0 to 25	> 75	D (% inhibition is greater than or equal to 0% and less than 25%)	D (% inhibition is greater than or equal to 0% and less than 25%)
CC(=O)Nc1ccn(C(=O)N2CCC3(CCCN3Cc3ccc(C(F)(F)F)cc3NCCCC(=O)O)CC2)n1 [Example 79, 4-((2-((8-(3-Acetamido-1H-pyrazole-1-carbonyl)-1,8-diazaspiro[4.5]decan-1-yl)methyl)-5-(trifluoromethyl)phenyl)amino)butanoic acid]			> 75	0 to 25	0 to 25	> 75	D (% inhibition is greater than or equal to 0% and less than 25%)	D (% inhibition is greater than or equal to 0% and less than 25%)
CS(=O)(=O)Nc1ccn(C(=O)N2CCN(Cc3ccc(Cl)c(N4CC[C@H](F)C4)c3)CC2)n1 [Example 117, (S)-N-(1-(4-(4-Chloro-3-(3-fluoropyrrolidin-1-yl)benzyl)piperazine-1-carbonyl)-1H-pyrazol-3-yl)methanesulfonamide]			> 75	0 to 25	0 to 25	> 75	B (% inhibition is greater than or equal to 50% and less than 75%)	D (% inhibition is greater than or equal to 0% and less than 25%)
CC(=O)Nc1ccn(C(=O)N2CCC3(CCN(Cc4cc(F)cc(Cl)c4)C3)CC2)n1 [Example 176, N-(1-(2-(3-Chloro-5-fluorobenzyl)-2,8-diazaspiro[4.5]decane-8-carbonyl)-1H-pyrazol-3-yl)acetamide]		< 0.1	> 75			> 75	A (% inhibition is greater than or equal to 75%)	
C[C@@H]1CN(C(=O)n2ccc(NS(C)(=O)=O)n2)CCN1Cc1ccc(C(F)(F)F)c(N2CC3COCC3C2)c1 (stereo partly drawn) [Example 182, N-(1-((3R)-3-Methyl-4-(3-(tetrahydro-1H-furo[3,4-c]pyrrol-5(3H)-yl)-4-(trifluoromethyl)benzyl)piperazine-1-carbonyl)-1H-pyrazol-3-yl)methanesulfonamide]		< 0.1	> 75			> 75	D (% inhibition is greater than or equal to 0% and less than 25%)	
C[C@H]1CN(C(=O)n2ccc(NS(C)(=O)=O)n2)CCN1Cc1ccc(Cl)c(N2CCC(F)(F)CC2)c1 [Example 186, (S)-N-(1-(4-(4-Chloro-3-(4,4-difluoropiperidin-1-yl)benzyl)-3-methylpiperazine-1-carbonyl)-1H-pyrazol-3-yl)methanesulfonamide]			> 75			> 75	A (% inhibition is greater than or equal to 75%)	
C[C@H]1CN(C(=O)n2ccc(NS(C)(=O)=O)n2)CCN1Cc1ccc(Cl)c(N2CC[C@H](F)C2)c1 [Example 189, N-(1-((S)-4-(4-Chloro-3-((S)-3-fluoropyrrolidin-1-yl)benzyl)-3-methylpiperazine-1-carbonyl)-1H-pyrazol-3-yl)methanesulfonamide]			> 75			> 75	A (% inhibition is greater than or equal to 75%)	
